The results in this text go back to patent publication US8551984B2, “Aminopyrimidines as SYK inhibitors” (Merck Sharp & Dohme Corp., priority 2009, dated 2013).

Structures are written as SMILES. Where a name gives a salt, the structure may show the parent alone.

In this assay the target is recombinant human SYK (GST-hSYK fusion protein) (Homo sapiens, UniProt P43405). The experiment in a line: biochemical. The following applies: rhSYK Activity (IC50), recombinant human GST-SYK 5 pM, ATP 25 μM, biotinylated substrate peptide 250 nM, HTRF, 10-dose titration. Background: Time-resolved FRET reads energy transfer from a long-lived donor to a nearby acceptor.
Source text: Homogeneous Time-Resolved Fluorescence (HTRF) Assay for the Recombinant Human SYK Enzyme:
On to `Cc1cc(Nc2nccc(C(F)(F)F)n2)cc(-c2cnc(C(C)(C)c3nnco3)s2)c1` [Example 82, N-(3-methyl-5-{2-[2-(1,3,4-oxadiazol-2-yl)propan-2-yl]-1,3-thiazol-5-yl}phenyl)-4-(trifluoromethyl)pyrimidin-2-amine], for which the IC50 (as a rule, the concentration that inhibits the measured activity by half) was less than 100 nM.
The value for `Cc1cc(Nc2nccc(C(F)(F)F)n2)cc(-c2cnc(C3(C(=O)OC(C)(C)C)CC3)s2)c1` [Example 83, tert-butyl 1-[5-(3-methyl-5-{[4-(trifluoromethyl)pyrimidin-2-yl]amino}phenyl)-1,3-thiazol-2-yl]cyclopropanecarboxylate] was 100 to 1000 nM.
The value for `Cc1cc(Nc2nccc(C(F)(F)F)n2)cc(-c2cnc(C3(C(=O)O)CC3)s2)c1` [Example 84, 1-[5-(3-methyl-5-{[4-(trifluoromethyl)pyrimidin-2-yl]amino}phenyl)-1,3-thiazol-2-yl]cyclopropanecarboxylic acid (TFA salt)] was less than 100 nM; that for `Cc1cc(Nc2nccc(C(F)(F)F)n2)cc(-c2cnc(C3(c4nnco4)CC3)s2)c1` [Example 85, N-(3-methyl-5-{2-[1-(1,3,4-oxadiazol-2-yl)cyclopropyl]-1,3-thiazol-5-yl}phenyl)-4-(trifluoromethyl)pyrimidin-2-amine] was less than 100 nM.
Consider `Cc1cc(Nc2nccc(C(F)(F)F)n2)cc(-c2cnc(C(C)(C)C(N)=O)s2)c1` [Example 85A-1], for which the concentration for half-maximal inhibition (IC50) was less than 100 nM.
On to `Cc1cc(Nc2nccc(C(F)(F)F)n2)cc(-c2cnc(C(C)(C)C(=O)N(C)C)s2)c1` [Example 85A-2], for which the IC50 is less than 100 nM.
For `Cc1cc(Nc2nccc(C(F)(F)F)n2)cc(-c2cnc(C(C)(C)C(=O)N3CCOCC3)s2)c1` [Example 85A-3] the value was less than 100 nM.
For `Cc1cc(Nc2nccc(C(F)(F)F)n2)cc(-c2cnc(C(C)(C)c3nnc(C)o3)s2)c1` [Example 85A-4] the value was less than 100 nM.
The value for `Cc1cc(Nc2nccc(C(F)(F)F)n2)cc(-c2cnc(C3(C(=O)N(C)C)CC3)s2)c1` [Example 85B-1] was less than 100 nM.
Take `CNC(=O)C1(c2ncc(-c3cc(C)cc(Nc4nccc(C(F)(F)F)n4)c3)s2)CC1` [Example 85B-2]: the IC50 is less than 100 nM.
The value for `Cc1cc(Nc2nccc(C(F)(F)F)n2)cc(-c2cnc(C3(C(N)=O)CC3)s2)c1` [Example 85B-3] was less than 100 nM.
The value for `Cc1cc(Nc2nccc(C(F)(F)F)n2)cc(-c2cnc(C3(c4nnc(C)o4)CC3)s2)c1` [Example 85B-4] was less than 100 nM; that for `Cc1cc(Nc2nccc(C(F)(F)F)n2)cc(-c2cnc(C(=O)O)s2)c1` [Example 86, 5-(3-methyl-5-{[4-(trifluoromethyl)pyrimidin-2-yl]amino}phenyl)-1,3-thiazole-2-carboxylic acid] was less than 100 nM; that for `Cc1cc(Nc2nccc(C(F)(F)F)n2)cc(-c2cnc(C(=O)NC[C@@H](O)CO)s2)c1` [Example 87, N-[(2R)-2,3-dihydroxypropyl]-5-(3-methyl-5-{[4-(trifluoromethyl)pyrimidin-2-yl]amino}-phenyl)-1,3-thiazole-2-carboxamide] was less than 100 nM.
`Cc1cc(Nc2nccc(C(F)(F)F)n2)cc(-c2cnc(C(=O)NC(C)C)s2)c1` [Example 87A-1]: the half-inhibitory concentration (IC50) is 100 to 1000 nM.
For `Cc1cc(Nc2nccc(C(F)(F)F)n2)cc(-c2cnc(C(N)=O)s2)c1` [Example 87A-2] the value was 100 to 1000 nM; for `Cc1cc(Nc2nccc(C(F)(F)F)n2)cc(-c2cnc(C(=O)NCCS(C)(=O)=O)s2)c1` [Example 87A-5], less than 100 nM; for `Cc1cc(Nc2nccc(C(F)(F)F)n2)cc(-c2cnc(C(=O)N(C)CCO)s2)c1` [Example 87A-6], less than 100 nM.
For `Cc1cc(Nc2nccc(C(F)(F)F)n2)cc(-c2cnc(C(=O)NCC(C)O)s2)c1` (stereo not drawn) [Example 87A-7] the value was less than 100 nM; for `Cc1cc(Nc2nccc(C(F)(F)F)n2)cc(-c2cnc(C(=O)NC(C)CO)s2)c1` (stereo not drawn) [Example 87A-8], less than 100 nM; for `Cc1cc(Nc2nccc(C(F)(F)F)n2)cc(-c2cnc(C(=O)NC3(CO)CC3)s2)c1` [Example 87A-9], less than 100 nM.
The value for `CCC(CO)NC(=O)c1ncc(-c2cc(C)cc(Nc3nccc(C(F)(F)F)n3)c2)s1` (stereo not drawn) [Example 87A-10] was less than 100 nM.
For `Cc1cc(Nc2nccc(C(F)(F)F)n2)cc(-c2cnc(C(=O)NCC(C)(C)O)s2)c1` [Example 87A-11], the IC50 is less than 100 nM.
The value for `Cc1cc(Nc2nccc(C(F)(F)F)n2)cc(-c2cnc(C(=O)NC(C)(CO)CO)s2)c1` [Example 87A-12] was less than 100 nM; that for `Cc1cc(Nc2nccc(C(F)(F)F)n2)cc(-c2cnc(C(=O)NCc3cnn(C)c3)s2)c1` [Example 87A-13] was 100 to 1000 nM.
As to `Cc1cc(Nc2nccc(C(F)(F)F)n2)cc(-c2cnc(C(=O)NCc3cncn3C)s2)c1` [Example 87A-14], the IC50 is less than 100 nM.
The value for `Cc1cc(Nc2nccc(C(F)(F)F)n2)cc(-c2cnc(C(=O)NCCc3c[nH]cn3)s2)c1` [Example 87A-15] was less than 100 nM; that for `Cc1cc(Nc2nccc(C(F)(F)F)n2)cc(-c2cnc(C(=O)NC3(CO)CCCC3)s2)c1` [Example 87A-16] was 1000 to 10000 nM; that for `Cc1cc(Nc2nccc(C(F)(F)F)n2)cc(-c2cnc(C(=O)N(C)CCC3OCCO3)s2)c1` [Example 87A-17] was 100 to 1000 nM.
For `C=C(F)CNC(=O)c1ncc(-c2cc(C)cc(Nc3nccc(C(F)(F)F)n3)c2)s1` [Example 87A-19] the value was less than 100 nM.
Take `Cc1cc(Nc2nccc(C(F)(F)F)n2)cc(-c2cnc(C(=O)NCC3COCCO3)s2)c1` (stereo not drawn) [Example 87A-20]: the IC50 is less than 100 nM.
With `Cc1cc(Nc2nccc(C(F)(F)F)n2)cc(-c2cnc(C(=O)N(C)Cc3nccn3C)s2)c1` [Example 87A-21], the IC50 was less than 100 nM.
Turning to `Cc1cc(Nc2nccc(C(F)(F)F)n2)cc(-c2cnc(C(=O)N(C)CC3COCCO3)s2)c1` (stereo not drawn) [Example 87A-23], the IC50 was 100 to 1000 nM.
`COCC(O)CNC(=O)c1ncc(-c2cc(C)cc(Nc3nccc(C(F)(F)F)n3)c2)s1` (stereo not drawn) [Example 87A-24]: the IC50 is less than 100 nM.
The value for `Cc1cc(Nc2nccc(C(F)(F)F)n2)cc(-c2cnc(C(=O)NCc3ncc[nH]3)s2)c1` [Example 87A-25] was less than 100 nM; that for `Cc1cc(Nc2nccc(C(F)(F)F)n2)cc(-c2cnc(C(=O)N(C)CC(O)CO)s2)c1` (stereo not drawn) [Example 87A-26] was less than 100 nM; that for `Cc1cc(Nc2nccc(C(F)(F)F)n2)cc(-c2cnc(C(=O)N(C)CCS(C)(=O)=O)s2)c1` [Example 87A-27] was 1000 to 10000 nM.
The value for `CCN(C)C(=O)c1ncc(-c2cc(C)cc(Nc3nccc(C(F)(F)F)n3)c2)s1` [Example 87A-28] was 100 to 1000 nM; that for `Cc1cc(Nc2nccc(C(F)(F)F)n2)cc(-c2cnc(C(=O)N(CCO)CCO)s2)c1` [Example 87A-29] was less than 100 nM.
For `CNC(=O)CN(C)C(=O)c1ncc(-c2cc(C)cc(Nc3nccc(C(F)(F)F)n3)c2)s1` [Example 87A-30] the value was less than 100 nM; for `Cc1cc(Nc2nccc(C(F)(F)F)n2)cc(-c2cnc(C(=O)N[C@H](c3ccccc3)[C@@H](O)C(=O)O)s2)c1` [Example 87A-32], less than 100 nM.
`Cc1cc(Nc2nccc(C(F)(F)F)n2)cc(-c2cnc(C(=O)NC(CO)(CO)CO)s2)c1` [Example 87A-34]: the IC50 was less than 100 nM.
Regarding `Cc1cc(Nc2nccc(C(F)(F)F)n2)cc(-c2cnc(C(=O)NCCC(=O)O)s2)c1` [Example 87A-35], the IC50 was less than 100 nM.
The value for `Cc1cc(Nc2nccc(C(F)(F)F)n2)cc(-c2cnc(C(=O)NCCCN(CCO)CCO)s2)c1` [Example 87A-36] was less than 100 nM; that for `Cc1cc(Nc2nccc(C(F)(F)F)n2)cc(-c2cnc(C(=O)NC3CCC(C(=O)O)CC3)s2)c1` (stereo not drawn) [Example 87A-37] was less than 100 nM.
For `NC(=O)c1ncc(-c2cccc(Nc3nccc(C(F)(F)F)n3)c2)s1` [Example 87A-38] the value was less than 100 nM.
As for `Cc1cc(Nc2nccc(C(F)(F)F)n2)cc(-c2cnc(C(=O)N3CCCC3)s2)c1` [Example 87B-1], the IC50 was 100 to 1000 nM.
The value for `Cc1cc(Nc2nccc(C(F)(F)F)n2)cc(-c2cnc(C(=O)N3CCN(C)CC3)s2)c1` [Example 87B-3] was 100 to 1000 nM; that for `Cc1cc(Nc2nccc(C(F)(F)F)n2)cc(-c2cnc(C(=O)N3CCN(C)C(=O)C3)s2)c1` [Example 87B-4] was less than 100 nM; that for `Cc1cc(Nc2nccc(C(F)(F)F)n2)cc(-c2cnc(C(=O)N3CCN(C)C(=O)C3C)s2)c1` (stereo not drawn) [Example 87B-5] was 100 to 1000 nM.
Consider `Cc1cc(Nc2nccc(C(F)(F)F)n2)cc(-c2cnc(C(=O)N3CCn4cccc4C3)s2)c1` [Example 87B-6], for which the IC50 was less than 100 nM.
For `CC(=O)N1CCN(C(=O)c2ncc(-c3cc(C)cc(Nc4nccc(C(F)(F)F)n4)c3)s2)CC1` [Example 87B-7] the value was 100 to 1000 nM.
For `Cc1cc(Nc2nccc(C(F)(F)F)n2)cc(-c2cnc(C(=O)N3CCn4ccnc4C3)s2)c1` [Example 87B-9] the value was less than 100 nM; for `Cc1cc(Nc2nccc(C(F)(F)F)n2)cc(-c2cnc(C(=O)N3CC[C@@H](CO)C3)s2)c1` [Example 87B-11], less than 100 nM.
The value for `Cc1cc(Nc2nccc(C(F)(F)F)n2)cc(-c2cnc(C(=O)N3CCC(C)(O)C3)s2)c1` (stereo not drawn) [Example 87B-12] was less than 100 nM.
In the case of `Cc1cc(Nc2nccc(C(F)(F)F)n2)cc(-c2cnc(C(=O)N3CCC[S+]([O-])CC3)s2)c1` (stereo not drawn) [Example 87B-13], the IC50 is less than 100 nM.
Consider `Cc1cc(Nc2nccc(C(F)(F)F)n2)cc(-c2cnc(C(=O)N3CCS(=O)(=O)CC3)s2)c1` [Example 87B-14], for which the half-inhibitory concentration (IC50) was in the range of 100 to 1000 nM.
The value for `Cc1cc(Nc2nccc(C(F)(F)F)n2)cc(-c2cnc(C(=O)N3CCN(CC(F)(F)F)CC3)s2)c1` [Example 87B-15] was 1000 to 10000 nM; that for `Cc1cc(Nc2nccc(C(F)(F)F)n2)cc(-c2cnc(C(=O)N3CC[C@H](CO)C3)s2)c1` [Example 87B-16] was less than 100 nM; that for `Cc1cc(Nc2nccc(C(F)(F)F)n2)cc(-c2cnc(C(=O)N3CCC(O)C3)s2)c1` (stereo not drawn) [Example 87B-17] was less than 100 nM.
